Data published in patent publication US9981899B2, “Composition containing reduced coenzyme Q10 and production method thereof” (KANEKA CORPORATION, priority 2006, dated 2018).

Key:
[1] = Oxidative stability: residual ratio of reduced coenzyme Q10 after preservation at 40° C. in the air in light shading for 30 days; assay type: physicochemical
Method: The reduced coenzyme Q10 residual ratio (%) after preservation at 40° C. in the air for 30 days under shading conditions of the particulate composition containing reduced coenzyme Q10 of the present invention is not particularly limited. It is not less than about 50 wt %, preferably not less than about 60 wt %, more preferably not less than about 70 wt %, still more preferably not less than about 80 wt %, particularly preferably not less than about 90 wt %.
The purity of reduced coenzyme Q10 and the weight ratio (%) of reduced coenzyme Q10 were determined by the following HPLC analysis (weight ratio (%)={reduced coenzyme Q10/(oxidized coenzyme Q10+reduced coenzyme Q10)}×100).

[2] = Crystallinity of reduced coenzyme Q10 in the particulate composition by DSC; assay type: physicochemical; conditions: after preservation at 25° C. in the air for 30 days; measured/theoretical melting calorie
Method: The crystallinity of reduced coenzyme Q10 in the obtained particulate composition was determined by the following DSC (differential scanning calorimeter [EXSTAR6000 manufactured by Seiko Instruments Inc.]) analysis after preservation at 25° C. in the air for 30 days. The particulate compositions obtained in Examples and Comparative Examples were preserved under the above-mentioned given conditions, 10 mg thereof was taken in an aluminum pan and the temperature was elevated from 15° C. to 70° C. at a temperature rise rate of 5° C./min, during which the crystal melting calorie was measured. The crystallinity was calculated according to the following formula using the theoretical melting calorie determined from the content of reduced coenzyme Q10 in the particulate composition and the data of melting calorie actually measured by DSC. Crystallinity (%)=(measured melting calorie/theoretical melting calorie)×100 (Volume Average Particle Size)

Structure (SMILES): COc1c(O)c(C)c(C/C=C(\C)CC/C=C(\C)CC/C=C(\C)CC/C=C(\C)CC/C=C(\C)CC/C=C(\C)CC/C=C(\C)CC/C=C(\C)CC/C=C(\C)CCC=C(C)C)c(O)c1OC [Comparative Example 1, reduced coenzyme Q10]
- residual ratio of the reduced coenzyme Q10 [1]: 28%
- crystallinity measured by DSC [2]: 100%
